# Read-outs that look alike come from different tables or passages of the source.
# Columns and labels:
# Assay type in all cases: cell-based
# [1] = system: Enterobacter cloacae OMNF 1153; test: MIC test, agar dilution with Steers multiwell inoculator; conditions: OMNF1153, TSA dishes, 24 h at 35°C, read-out: Minimum Inhibiting Concentration
# Protocol: (§1) As to the antibacterial activity, there was determined the Least (Minimum) Inhibiting Concentration (MIC), by working according to the following operative conditions.
# (§2) There were used suspensions of test germs (5 gram-positive and 15 gram-negative) having a known titre, kept freezed at -80°C and diluted, at the time of use, in peptonized water up to a concentration of 1-2.10⁷ cfu/ml.
# (§3) A few mg of the products, according to the invention were weighed sufficient for preparing parent solutions in DMSO + NaOH (1N) containing 2560 µg/ml (64µg/ml/dish). From the thus prepared parent solutions there were prepared 12 serial dilutions (1:2) down to the concentration of 1.25 µg/ml.
# (§4) 0.5 ml of the different dilutions of each product were distributed on dishes containing 19.5 ml of agarized medium (TSA), maintained in a fluid state at the temperature of 50°C. After slight stirring, the dishes were made to solidify and dry under hood (laminar flow).
# (§5) The MIC tests (Least or "Minimum" Inhibiting Concentration) were performed by using a Steers multiwell inoculator having 36 wells, each containing 200 µl of bacterial suspension.
# (§6) After inoculation, the dishes were placed into a thermostat and checked after 24 h of incubation at 35°C.
# (§7) The MIC is defined as the lowermost product concentration (µg/ml) inhibiting the visible growth of the microorganisms.
# [2] = system: Enterobacter cloacae OMNF 1174; test: as above; conditions: OMNF1174, TSA dishes, 24 h at 35°C, read-out: Minimum Inhibiting Concentration
# Protocol: as §1, §2, §3, §4, §5, §6, §7
# [3] = system: Pseudomonas aeruginosa CNUR 2; test: as above; conditions: CNUR2, TSA dishes, 24 h at 35°C, read-out: Minimum Inhibiting Concentration
# Protocol: as §1, §2, §3, §4, §5, §6, §7
# [4] = system: Proteus vulgaris CNUR 6; test: as above; conditions: CNUR6, TSA dishes, 24 h at 35°C, read-out: Minimum Inhibiting Concentration
# Protocol: as §1, §2, §3, §4, §5, §6, §7
# [5] = system: Shighella enteritidis; test: as above; conditions: TSA dishes, 24 h at 35°C, read-out: Minimum Inhibiting Concentration
# Protocol: as §1, §2, §3, §4, §5, §6, §7
# [6] = system: Escherichia coli CNUR 8; test: as above; conditions: CNUR8, TSA dishes, 24 h at 35°C, read-out: Minimum Inhibiting Concentration
# Protocol: as §1, §2, §3, §4, §5, §6, §7
# [7] = system: Staphylococcus aureus MPR 5; test: as above; conditions: MPR5, TSA dishes, 24 h at 35°C, read-out: Minimum Inhibiting Concentration
# Protocol: as §1, §2, §3, §4, §5, §6, §7
# [8] = system: Klebsiella pneumoniae ATCC 10031; test: as above; conditions: ATCC10031, TSA dishes, 24 h at 35°C, read-out: Minimum Inhibiting Concentration
# Protocol: as §1, §2, §3, §4, §5, §6, §7
# [9] = system: Escherichia coli ATCC 8739; test: as above; conditions: ATCC8739, TSA dishes, 24 h at 35°C, read-out: Minimum Inhibiting Concentration
# Protocol: as §1, §2, §3, §4, §5, §6, §7
# [10] = system: Pseudomonas aeruginosa ATCC 9027; test: as above; conditions: ATCC9027, TSA dishes, 24 h at 35°C, read-out: Minimum Inhibiting Concentration
# Protocol: as §1, §2, §3, §4, §5, §6, §7
# [11] = system: Staphylococcus aureus ATCC 6538; test: as above; conditions: ATCC6538, TSA dishes, 24 h at 35°C, read-out: Minimum Inhibiting Concentration
# Protocol: as §1, §2, §3, §4, §5, §6, §7
# [12] = system: Acinebacter calcoloaceticus OSMPV 1130; test: as above; conditions: TSA dishes, 24 h at 35°C, read-out: Minimum Inhibiting Concentration
# Protocol: as §1, §2, §3, §4, §5, §6, §7
# [13] = system: Escherichia coli 120; test: as above; conditions: TSA dishes, 24 h at 35°C, read-out: Minimum Inhibiting Concentration
# Protocol: as §1, §2, §3, §4, §5, §6, §7
# [14] = system: Staphylococcus epidermidis CPHL A2; test: as above; conditions: CPHLA2, TSA dishes, 24 h at 35°C, read-out: Minimum Inhibiting Concentration
# Protocol: as §1, §2, §3, §4, §5, §6, §7
# [15] = system: Staphylococcus epidermidis HCF Berset C.; test: as above; conditions: TSA dishes, 24 h at 35°C, read-out: Minimum Inhibiting Concentration
# Protocol: as §1, §2, §3, §4, §5, §6, §7
# [16] = system: Escherichia coli ISF 432; test: as above; conditions: ISF432, TSA dishes, 24 h at 35°C, read-out: Minimum Inhibiting Concentration
# Protocol: as §1, §2, §3, §4, §5, §6, §7
# [17] = system: Escherichia coli CNUR 1; test: as above; conditions: CNUR1, TSA dishes, 24 h at 35°C, read-out: Minimum Inhibiting Concentration
# Protocol: as §1, §2, §3, §4, §5, §6, §7
# [18] = system: Pseudomonas aeruginosa CNUR 4; test: as above; conditions: CNUR4, TSA dishes, 24 h at 35°C, read-out: Minimum Inhibiting Concentration
# Protocol: as §1, §2, §3, §4, §5, §6, §7
# [19] = system: Providencia stuardii CNUR 5; test: as above; conditions: CNUR5, TSA dishes, 24 h at 35°C, read-out: Minimum Inhibiting Concentration
# Protocol: as §1, §2, §3, §4, §5, §6, §7
# [20] = system: Streptococcus facealis LEP Br.; test: as above; conditions: TSA dishes, 24 h at 35°C, read-out: Minimum Inhibiting Concentration
# Protocol: as §1, §2, §3, §4, §5, §6, §7
# [21] = system: Gram -; test: MIC test, average over the 15 gram-negative test germs; conditions: 24 h
# Protocol: as §1, §2, §3, §4, §5, §6, §7
# [22] = system: Gram +; test: MIC test, average over the 5 gram-positive test germs; conditions: 24 h
# Protocol: as §1, §2, §3, §4, §5, §6, §7
# [23] = geometrical average of the MIC over the 15 Gram - strains, read-out: Geometrical Average
# [24] = mean log of the MIC over the 15 Gram - strains, read-out: Log (converted)
# [25] = geometrical average of the MIC over the 5 Gram + strains, read-out: Geometrical Average
SMILES,MIC [1] [µg/mL],MIC [2] [µg/mL],MIC [3] [µg/mL],MIC [4] [µg/mL],MIC [6] [µg/mL],MIC [7] [µg/mL],MIC [8] [µg/mL],MIC [9] [µg/mL],MIC [10] [µg/mL],MIC [11] [µg/mL],MIC [12] [µg/mL],MIC [13] [µg/mL],MIC [14] [µg/mL],MIC [15] [µg/mL],MIC [16] [µg/mL],MIC [17] [µg/mL],MIC [18] [µg/mL],MIC [19] [µg/mL],MIC [20] [µg/mL],"MIC [21, 23] [µg/mL]",other results
Cc1c(N2CCNCC2)c(N)cc2c(=O)c(C(=O)O)cn(C3CC3)c12 [Compound 34],0.25,0.12,16,8,0.06,2,0.06,0.12,4,1,4,0.12,1,2,0.06,0.12,16,2,8,0.51,"MIC [5]: 0.06 µg/mL; MIC [21, 24]: 0.513 µg/mL; MIC [22, 25]: 2 µg/mL; MIC ([22]; read-out: Log (converted)): 2 µg/mL"
Nc1cc2c(=O)c(C(=O)O)cn(C3CC3)c2cc1N1CCC(O)CC1 [Compound 16],2,2,128,128,1,4,0.03,0.03,8,4,2,0.5,2,4,0.03,2,128,8,8,2.08,"MIC [21, 24]: 2.07 µg/mL; MIC [22, 25]: 4 µg/mL; MIC ([22]; read-out: Log (converted)): 4 µg/mL"
"Cc1c(N2CCc3ccccc3C2)c(N)cc2c(=O)c(C(=O)O)cn(C3CC3)c12 [Compound 36, 6-amino-1-cyclopropyl-8-methyl-7-[2-(1,2,3,4-tetrahydroisoquinolinyl)]-carboxylic acid]",8,8,8,64,2,0.5,0.12,0.12,32,0.5,8,2,1,2,0.25,4,128,2,4,3.98,"MIC [21, 24]: 3.98 µg/mL; MIC [22, 25]: 1.15 µg/mL; MIC ([22]; read-out: Log (converted)): 1.15 µg/mL"
Nc1cc2c(=O)c(C(=O)O)cn(-c3ccc(F)cc3)c2cc1N1CCSCC1 [Compound 51],4,4,128,128,0.5,0.5,0.03,0.06,128,0.5,4,0.5,2,2,0.03,4,128,4,64,3.01,"MIC [21, 24]: 3.01 µg/mL; MIC [22, 25]: 2.3 µg/mL; MIC ([22]; read-out: Log (converted)): 2.3 µg/mL"
"Nc1cc2c(=O)c(C(=O)O)cn(-c3ccc(F)cc3)c2cc1N1CCc2ccccc2C1 [Compound 52, 6-amino-1-(4-fluorophenyl)-7-[2-(1,2,3,4-tetrahydroisoquinolinyl)]-1,4-dihydro-4-oxo-quinoline carboxylic acid]",8,4,128,128,1,1,0.12,0.12,128,0.5,4,1,2,4,0.12,4,128,8,64,4.56,"MIC [21, 24]: 4.56 µg/mL; MIC [22, 25]: 3.03 µg/mL; MIC ([22]; read-out: Log (converted)): 3.03 µg/mL"
